Where a SMILES comes first, the peptide text is derived from it. Bridges are numbered along the chain shown (N, C = ends). [ ]: non-standard residue; d: D form. The star is where a group is joined. Phe(4-F) = N[C@@H](Cc1ccc(F)cc1)C(=O)O; 2Nal = N[C@@H](Cc1ccc2ccccc2c1)C(=O)O; Nle = CCCC[C@H](N)C(=O)O; Orn = NCCC[C@H](N)C(=O)O; Acm = CC(=O)NC*
Assays:
[1] = test system: guinea pigs; experiment: In vivo bronchodilator activity by tracheal instillation against histamine challenge; design: species or system guinea pig; conditions: anesthetized male guinea pigs, inhibition of histamine (i.v.)-induced rise in tracheal pressure
Procedure: The in vivo bronchodilator activity of VIP and VIP analogs in guinea pigs was assessed by the tracheal instillation route of administration. This technique utilized male guinea pigs (Hartley strain, Charles River) weighing 400-600 g. Animals were anesthetized with urethane (2 g/kg) intraperitoneally and a polyethylene cannula was inserted into the jugular vein for intraveneous drug administration.
The animals were tracheotomized and dosing solutions of distilled water or test compound dissolved in distilled water were administered into the trachea, approximately three-quarters the distance to the carina with a pipette. The concentration of the dosing solution was adjusted to deliver a constant volume of […]. The animals were placed supine for one minute to aid drug delivery to the lung. One minute later, spontaneous breathing was arrested with succinylcholine chloride (1.2 mg/kg) administered intraveneously, and the animals were ventilated with a HARVARD Model 680 small animal respirator set at 40 breaths/min and 4.0 cm^3 stroke volume. The animals were challenged with a maximal constrictory dose of histamine ([…], i.v.) and tracheal pressure (cm of water) was recorded from a STATHAM pressure transducer (P 32 AA).
The change in tracheal pressure was averaged for at least 3 control and 3 drug-treated animals and percent inhibition was calculated. The relative potency of compounds administered by the instillation route was determined by administering various doses of test compound and calculating the median effective dose (ED50 value). The ED50 was determined from log dose-response curves generated by at least 3 doses that caused inhibitory effects between 10% and 90%. The correlation coefficients for the regression line of each compound was always greater than 0.95.
For determination of the time course of inhibition for various compounds, the time between administration of compound and challenge with histamine was varied. The time course of activity was calculated as the time when inhibition decreased to 40%.
The results summarized in Table II show the in vivo bronchodilator activity of the VIP analogs in comparison to native VIP.

[2] = test system: guinea pig tracheal smooth muscle; experiment: Tracheal relaxant activity of VIP analogs on isolated guinea pig tracheal rings; type: cell-based; conditions: cumulative concentration response, relaxation as % of maximum response to VIP (10^-6 M=100%), three tissues pooled, linear regression
Procedure: The relaxant activity of the VIP analogs were studied in a model utilizing guinea pig trachea. [Wasserman, M. A. et al., in Vasoactive Intestinal Peptide, S. I. Said, ed., Raven Press, New York 1982, pp 177-184] All tissues were taken from male albino guinea pig weighing 400-600 g, anesthetized with urethane (2 g/kg, i.p.). After exanguination, the trachea were removed and divided into four ring segments (3 mm length). Each ring was suspended by 30 gauge stainless steel wires in a 10 mL jacketed tissue bath and attached via 4-0 silk thread to a GRASS force displacement transducer (model FT03C, Grass Instruments Co., Quincy, Mass.), for isometric recording of tension. The smooth muscle was bathed in modified Krebs solution of the following composition: NaCl, 120 mM; KCl, 4.7 mM; CaCl2, 2.5 mM; MgSO4.7H2 O, 1.2 mM; NaHCO3, 25 mM; K2 HPO4 monobasic, 1.2 mM; and dextrose, 10 mM. Tissue baths were maintained at 37° C. and constantly bubbled with 95% O2 and 5% CO2. Responses were recorded on an 8 channel and a 4 channel HEWLETT-PACKARD (model 7702B and 7754A, respectively) recorder (Hewlett- Packard, Paramus, N.J.). Tracheal rings were placed under a resting tension of 1.5 g which was determined to be at or near optimal in preliminary experiments. Frequent readjustments of tension were required during the 60 minute stabilization period which followed. Tissues were rinsed at 15 minute intervals.
Cumulative concentration response curves were obtained for each tissue by successive […] increases in the bath concentration of VIP or VIP analogs according to the method of VanRossum [Arch. Int. Pharmacodyn., 143, 299-330 (1963)]. Only one cumulative dose response curve was obtained on a single tissue. To minimize variability between tissues, relaxant responses were expressed as a percentage of the maximum response obtained to VIP (10^-6 M=100%) added at the end of each concentration response experiment. Responses obtained from three tissues were pooled and EC50 values were determined by linear regression.
The results summarized in Table I show the tracheal relaxant activity of the VIP analogs in comparison to native VIP.

| Compound | Bronchodilator activity of VIP analogs in guinea pigs, ED50 [1] | EC50 [2] |
| --- | --- | --- |
| CCCC[C@H](NC(=O)[C@H](CCC(N)=O)NC(=O)[C@H](CCCCN)NC(=O)[C@H](CCCNC(=N)N)NC(=O)[C@H](CC(C)C)NC(=O)[C@H](CCCCN)NC(=O)[C@@H](NC(=O)[C@H](Cc1ccc(O)cc1)NC(=O)[C@H](CC(N)=O)NC(=O)[C@H](CC(=O)O)NC(=O)[C@@H](NC(=O)[C@H](Cc1ccccc1)NC(=O)[C@@H](NC(=O)[C@H](C)NC(=O)[C@H](CC(=O)O)NC(=O)[C@H](CO)NC(=O)[C@H](Cc1c[nH]cn1)NC(C)=O)C(C)C)[C@@H](C)O)[C@@H](C)O)C(=O)N[C@@H](C)C(=O)N[C@H](C(=O)N[C@@H](CCCCN)C(=O)N[C@H]1CCCCNC(=O)C[C@@H](C(=O)N[C@H](C(=O)N[C@@H](CC(C)C)C(=O)N[C@H](C(N)=O)[C@@H](C)O)C(C)C)NC(=O)[C@H](CC(N)=O)NC(=O)[C@H](CC(C)C)NC(=O)[C@H](Cc2ccc(O)cc2)NC1=O)C(C)C [SEQ ID NO:28, Ac-[Lys^12,Nle^17,Asp^25,Val^26,Thr^28]-VIP cyclo (Lys^21 →Asp^25)] (Ac-HSDAVFTDNYTKLRKQ[Nle]AVKKYLNDVLT-NH2; lactam 21-25) | 1.2 μg | 3.1 nM |
| CCCC[C@H](NC(=O)[C@H](CCC(N)=O)NC(=O)[C@H](CCCCN)NC(=O)[C@H](CCCNC(=N)N)NC(=O)[C@H](CC(C)C)NC(=O)[C@H](CCCCN)NC(=O)[C@@H](NC(=O)[C@H](Cc1ccc(O)cc1)NC(=O)[C@H](CC(N)=O)NC(=O)[C@H](CC(=O)O)NC(=O)[C@@H](NC(=O)[C@H](Cc1ccccc1)NC(=O)[C@@H](NC(=O)[C@H](C)NC(=O)[C@H](CC(=O)O)NC(=O)[C@H](CO)NC(=O)[C@H](Cc1c[nH]cn1)NC(C)=O)C(C)C)[C@@H](C)O)[C@@H](C)O)C(=O)N[C@@H](C)C(=O)N[C@@H](C)C(=O)N[C@@H](CCCCN)C(=O)N[C@H]1CCCCNC(=O)C[C@@H](C(=O)N[C@H](C(=O)N[C@@H](CC(C)C)C(=O)N[C@H](C(N)=O)[C@@H](C)O)C(C)C)NC(=O)[C@H](CC(N)=O)NC(=O)[C@H](CC(C)C)NC(=O)[C@H](Cc2ccc(O)cc2)NC1=O [SEQ ID NO:29, Ac-[Lys^12,Nle^17,Ala^19,Asp^25,Val^26,Thr^28]-VIP cyclo (Lys^21 →Asp^25)] (Ac-HSDAVFTDNYTKLRKQ[Nle]AAKKYLNDVLT-NH2; lactam 21-25) | 0.34 μg | 0.7 nM |
| CCCC[C@H](NC(=O)[C@H](CCC(N)=O)NC(=O)[C@H](CCCCN)NC(=O)[C@H](CCCNC(=N)N)NC(=O)[C@H](CC(C)C)NC(=O)[C@H](CCCCN)NC(=O)[C@@H](NC(=O)[C@H](Cc1ccc2ccccc2c1)NC(=O)[C@H](CC(N)=O)NC(=O)[C@H](CC(=O)O)NC(=O)[C@@H](NC(=O)[C@H](Cc1ccc(F)cc1)NC(=O)[C@@H](NC(=O)[C@H](C)NC(=O)[C@H](CC(=O)O)NC(=O)[C@H](CO)NC(=O)[C@H](Cc1c[nH]cn1)NC(C)=O)C(C)C)[C@@H](C)O)[C@@H](C)O)C(=O)N[C@@H](C)C(=O)N[C@H](C(=O)N[C@@H](CCCCN)C(=O)N[C@H]1CCCCNC(=O)C[C@@H](C(=O)N[C@H](C(=O)N[C@@H](CC(C)C)C(=O)N[C@H](C(=O)NCC(=O)NCC(=O)N[C@@H](CCSC)C(N)=O)[C@@H](C)O)C(C)C)NC(=O)[C@H](CC(N)=O)NC(=O)[C@H](CC(C)C)NC(=O)[C@H](Cc2ccc(O)cc2)NC1=O)C(C)C [SEQ ID NO:30, Ac-[p-F-Phe^6,2-Nal^10,Lys^12,Nle^17,Asp^25,Val^26,Thr^28,Gly^29,30,Met^31]-VIP (1-31)-NH2 cyclo (Lys^21 →Asp^25)] (Ac-HSDAV[Phe(4-F)]TDN[2Nal]TKLRKQ[Nle]AVKKYLNDVLTGGM-NH2; lactam 21-25) | 0.90 μg | 1.3 nM |
| CCCC[C@H](NC(=O)[C@H](CCC(N)=O)NC(=O)[C@H](CCCCN)NC(=O)[C@H](CCCNC(=N)N)NC(=O)[C@H](CC(C)C)NC(=O)[C@H](CCCN)NC(=O)[C@@H](NC(=O)[C@H](Cc1ccc(O)cc1)NC(=O)[C@H](CC(N)=O)NC(=O)[C@H](CCC(=O)O)NC(=O)[C@@H](NC(=O)[C@H](Cc1ccccc1)NC(=O)[C@@H](NC(=O)[C@H](C)NC(=O)[C@H](CC(=O)O)NC(=O)[C@H](CO)NC(=O)[C@H](Cc1c[nH]cn1)NC(C)=O)C(C)C)[C@@H](C)O)[C@@H](C)O)C(=O)N[C@@H](C)C(=O)N[C@H](C(=O)N[C@@H](CCCCN)C(=O)N[C@H]1CCCCNC(=O)C[C@@H](C(=O)N[C@H](C(=O)N[C@@H](CC(C)C)C(=O)N[C@H](C(N)=O)[C@@H](C)O)C(C)C)NC(=O)[C@H](CC(N)=O)NC(=O)[C@H](CC(C)C)NC(=O)[C@H](Cc2ccc(O)cc2)NC1=O)C(C)C [SEQ ID NO:31, Ac-[Glu^8,Orn^12,Nle^17,Asp^25,Val^26,Thr^28]-VIP cyclo (Lys^21 →Asp^25)] (Ac-HSDAVFTENYT[Orn]LRKQ[Nle]AVKKYLNDVLT-NH2; lactam 21-25) | 0.19 μg | 2.2 nM |
| CCCC[C@H](NC(=O)[C@H](CCC(N)=O)NC(=O)[C@H](CCCCN)NC(=O)[C@H](CCCNC(=N)N)NC(=O)[C@H](CC(C)C)NC(=O)[C@H](CCCCN)NC(=O)[C@@H](NC(=O)[C@H](Cc1ccc(O)cc1)NC(=O)[C@H](CC(N)=O)NC(=O)[C@H](CC(=O)O)NC(=O)[C@@H](NC(=O)[C@H](Cc1ccc(F)cc1)NC(=O)[C@@H](NC(=O)[C@H](C)NC(=O)[C@H](CC(=O)O)NC(=O)[C@H](CO)NC(=O)[C@H](Cc1c[nH]cn1)NC(C)=O)C(C)C)[C@@H](C)O)[C@@H](C)O)C(=O)N[C@@H](C)C(=O)N[C@@H](C)C(=O)N[C@@H](CCCCN)C(=O)N[C@H]1CCCCNC(=O)C[C@@H](C(=O)N[C@H](C(=O)N[C@@H](CC(C)C)C(=O)N[C@H](C(=O)NCC(=O)NCC(=O)N[C@@H](CSCNC(C)=O)C(N)=O)[C@@H](C)O)C(C)C)NC(=O)[C@H](CC(N)=O)NC(=O)[C@H](CC(C)C)NC(=O)[C@H](Cc2ccc(O)cc2)NC1=O [SEQ ID NO:32, Ac-[p-F-Phe^6,Lys^12,Nle^17,Ala^19,Asp^25,Val^26,Thr^28,Gly^29,30,Cys(Acm)^31]-VIP (1-31)-NH2 cyclo (Lys^21 →Asp^25)] (Ac-HSDAV[Phe(4-F)]TDNYTKLRKQ[Nle]AAKKYLNDVLTGGC(Acm)-NH2; lactam 21-25) | 0.19 μg | 0.44 nM |
| CCCC[C@H](NC(=O)[C@H](CCC(N)=O)NC(=O)[C@H](CCCCN)NC(=O)[C@H](CCCNC(=N)N)NC(=O)[C@H](CC(C)C)NC(=O)[C@H](CCCCN)NC(=O)[C@@H](NC(=O)[C@H](Cc1ccc(O)cc1)NC(=O)[C@H](CC(N)=O)NC(=O)[C@H](CC(=O)O)NC(=O)[C@@H](NC(=O)[C@H](Cc1ccccc1)NC(=O)[C@@H](NC(=O)[C@H](C)NC(=O)[C@H](CC(=O)O)NC(=O)[C@H](C)NC(=O)[C@H](Cc1c[nH]cn1)NC(C)=O)C(C)C)[C@@H](C)O)[C@@H](C)O)C(=O)N[C@@H](C)C(=O)N[C@@H](C)C(=O)N[C@@H](CCCCN)C(=O)N[C@H]1CCCCNC(=O)C[C@@H](C(=O)N[C@H](C(=O)N[C@@H](CC(C)C)C(=O)N[C@H](C(N)=O)[C@@H](C)O)C(C)C)NC(=O)[C@H](CC(N)=O)NC(=O)[C@H](CC(C)C)NC(=O)[C@H](Cc2ccc(O)cc2)NC1=O [SEQ ID NO:33, Ac-[Ala^2,Lys^12,Nle^17,Ala^19,Asp^25,Val^26,Thr^28]-VIP cyclo (Lys^21 →Asp^25)] (Ac-HADAVFTDNYTKLRKQ[Nle]AAKKYLNDVLT-NH2; lactam 21-25) | 0.6 μg | 1.2 nM |
